Source: patent US9493416B2, “N-methyl-4-benzylcarbamidopyridinium chloride and a process for its preparation” (Farmak International Holding GmbH, priority 2012, dated 2016)

Experiment: Active ingredient release (dissolution) profile from solid gelatine capsules in pharmacopeial buffer solutions
Type: physicochemical
Details: for released faster than FAV00A-Io by: 370.6 mg capsules vs FAV00A-Io 500 mg capsules
Method: Results of comparative studies of active ingredient release profiles from a drug formulated as solid gelatine capsules using two salts of N-methyl-4-benzylcarbamidopyridine, namely the chloride and iodide salts labelled “FAV00A-Cl” and “FAV00A-Io” hereinafter.
In order to assess the FAV00A-Cl substance release rate from a finished medicinal product, studies of active ingredient release profiles were carried out for FAV00A-Cl 370.6 mg capsules, in 3 reference pharmacopeial buffer solutions with pH 1.2, 4.5, 6.8 and typical measurement conditions (1000 ml of 0.1M HCl; 100 rpm (basket); 1000 ml of acetate buffer solution pH 4.5; 100 rpm (basket); 1000 ml of phosphate buffer solution pH 6.8; 100 rpm (basket), respectively). Study results were compared against FAV00A-Io 500 mg capsules (with consideration of molecular weights of FAV00A-Cl and FAV00A-Io substances: the dosage of FAV00A-Cl substance 370.6 mg is equivalent to the dosage of FAV00A-Io substance 500 mg). The iodide salt FAV00A-Io used in the study was the α-crystalline form of amizon as described in applicant's co-pending patent applications WO 2011/158058 and WO 2011/157743.

- released faster than FAV00A-Io by (0.1M HCl, 5-th minute): 40%
- released faster than FAV00A-Io by (0.1M HCl, 10-th minute): 20%
- Dissolution classification of the product (based on release in 15 min of more than 85%): rapidly dissolving
- released faster than FAV00A-Io by (buffer solution with pH 4.5, 5-th minute): 25%
- released faster than FAV00A-Io by (buffer solution with pH 4.5, 10-th minute): 10%
- released faster than FAV00A-Io by (buffer solution with pH 6.8, 5-th minute): 25%
- released faster than FAV00A-Io by (buffer solution with pH 6.8, 10-th minute): 15%
- Release of substance from finished medicinal product in 15 min (in 15 min, 3 reference pharmacopoeial buffer solutions (pH 1.2, 4.5, 6.8)): more than 85%
Compound: C[n+]1ccc(C(=O)NCc2ccccc2)cc1.[Cl-] [FAV00A-Cl, N-methyl-4-benzylcarbamidopyridinium chloride]
